Data taken from patent US20080004253A1, “Thiazolopyrimidine modulators of TRPV1” (priority 2006, published 2008).

Assays:
human TRPV1 = target: T1, human TRPV1 (Homo sapiens, UniProt Q8NER1); assay: Functional assay: block of capsaicin-induced Ca2+ influx, human assay (hTRPV1/HEK293, FLIPR); format: cell-based; conditions: hTRPV1/HEK293 cells, 150 nM capsaicin challenge, Fluo-3 fluorescence; mean; > value = solubility limit in assay medium
T1 construct: expressed in transfected cells; host or cells: HEK293 (hTRPV1/HEK293), zeocin selection
T1 sequence (Q8NER1 whole entry): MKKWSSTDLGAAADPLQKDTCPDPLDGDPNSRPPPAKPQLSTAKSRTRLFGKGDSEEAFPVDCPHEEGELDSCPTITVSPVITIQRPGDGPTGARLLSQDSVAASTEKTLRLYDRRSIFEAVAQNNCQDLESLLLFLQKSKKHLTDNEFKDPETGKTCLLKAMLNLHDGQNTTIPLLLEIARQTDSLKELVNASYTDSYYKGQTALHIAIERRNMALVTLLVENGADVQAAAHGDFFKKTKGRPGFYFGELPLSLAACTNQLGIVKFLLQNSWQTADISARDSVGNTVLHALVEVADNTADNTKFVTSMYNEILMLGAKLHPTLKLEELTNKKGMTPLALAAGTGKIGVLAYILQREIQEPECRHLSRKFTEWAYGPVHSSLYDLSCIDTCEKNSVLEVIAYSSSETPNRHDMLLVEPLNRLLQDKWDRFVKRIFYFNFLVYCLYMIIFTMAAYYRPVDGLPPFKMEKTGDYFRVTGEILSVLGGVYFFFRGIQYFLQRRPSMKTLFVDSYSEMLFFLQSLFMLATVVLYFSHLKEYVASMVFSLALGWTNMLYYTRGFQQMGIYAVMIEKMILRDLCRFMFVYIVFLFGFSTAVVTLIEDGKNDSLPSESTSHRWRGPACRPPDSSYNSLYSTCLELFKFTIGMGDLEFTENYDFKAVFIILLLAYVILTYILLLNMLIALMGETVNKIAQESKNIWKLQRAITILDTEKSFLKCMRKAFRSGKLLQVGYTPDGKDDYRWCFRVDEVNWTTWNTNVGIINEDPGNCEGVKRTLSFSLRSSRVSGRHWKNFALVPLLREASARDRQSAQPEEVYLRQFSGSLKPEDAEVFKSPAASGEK
Procedure: (§1) Functional assay: block of capsaicin-induced Ca^2+ influx
(§2) HEK293 cells were transfected with human TRPV1 cloned in pcDNA3.1zeo(+) using the Effectene non-liposomal lipid based transfection kit (Qiagen) (hTRPV1/HEK293). hTRPV1/HEK293 cells were routinely grown as monolayers under selection in zeocin (200 μg/mL; Invitrogen) in Dulbecco's Modified Eagle Medium (DMEM, Gibco BRL) supplemented with 10% fetal bovine serum, and penicillin/streptomycin (50 units/mL) in 5% CO2 at 37° C. Cells were passaged frequently, every 3-5 days, to avoid overgrowth, depletion of essential medium components, or acidic medium exposure. Cells were passaged using a brief wash in 0.05% trypsin with 1 mM EDTA, followed by dissociation in divalent-free phosphate-buffered saline (Hyclone #SH30028.02). […] The assay buffer was composed of 130 mM NaCl, 2 mM KCl, 2 mM MgCl2, 10 mM HEPES, 5 mM glucose, and either 2 mM or 20 μM CaCl2. On the day of the experiment, the culture medium was replaced with 2 mM calcium assay buffer using an automated plate washer (ELx405; Biotek, VT). […] After loading the cells, the dye solution was replaced with 50 μL/well of 20 μM calcium assay buffer using the ELx405 plate washer. Test compounds (50 μL/well) were added to the plate and incubated for 30 min. […] The IC50 values were determined. […] The contents of the wells were mixed 3 times (40 μL mix volume) immediately after the additions were made. Concentration-dependence of block was determined by exposing each well of cells in duplicate rows of a 96-well plate to a serial dilution of test compound. The concentration series usually started at 10 μM with a three-fold serial decrement in concentration. The magnitude of the capsaicin response was determined by measuring the change in fluo3 fluorescence before and 100 seconds after the addition of the agonist. Data were analyzed using a non-linear regression program (Origin; OriginLab, MA).
(§3) IC50 values shown are the average (mean) of the results obtained. […] Compounds were tested in either the free base or trifluoroacetic acid salt form.

rat TRPV1 = target: T2, rat TRPV1 (Rattus norvegicus, UniProt O35433); assay: Functional assay: block of capsaicin-induced Ca2+ influx, rat assay (rTRPV1/HEK293, FLIPR); format: cell-based; conditions: rTRPV1/HEK293 cells, capsaicin challenge, Fluo-3 fluorescence; mean; > value = solubility limit in assay medium
T2 construct: expressed in transfected cells; host or cells: HEK293 (rTRPV1/HEK293), geneticin selection
T2 sequence (O35433 whole entry): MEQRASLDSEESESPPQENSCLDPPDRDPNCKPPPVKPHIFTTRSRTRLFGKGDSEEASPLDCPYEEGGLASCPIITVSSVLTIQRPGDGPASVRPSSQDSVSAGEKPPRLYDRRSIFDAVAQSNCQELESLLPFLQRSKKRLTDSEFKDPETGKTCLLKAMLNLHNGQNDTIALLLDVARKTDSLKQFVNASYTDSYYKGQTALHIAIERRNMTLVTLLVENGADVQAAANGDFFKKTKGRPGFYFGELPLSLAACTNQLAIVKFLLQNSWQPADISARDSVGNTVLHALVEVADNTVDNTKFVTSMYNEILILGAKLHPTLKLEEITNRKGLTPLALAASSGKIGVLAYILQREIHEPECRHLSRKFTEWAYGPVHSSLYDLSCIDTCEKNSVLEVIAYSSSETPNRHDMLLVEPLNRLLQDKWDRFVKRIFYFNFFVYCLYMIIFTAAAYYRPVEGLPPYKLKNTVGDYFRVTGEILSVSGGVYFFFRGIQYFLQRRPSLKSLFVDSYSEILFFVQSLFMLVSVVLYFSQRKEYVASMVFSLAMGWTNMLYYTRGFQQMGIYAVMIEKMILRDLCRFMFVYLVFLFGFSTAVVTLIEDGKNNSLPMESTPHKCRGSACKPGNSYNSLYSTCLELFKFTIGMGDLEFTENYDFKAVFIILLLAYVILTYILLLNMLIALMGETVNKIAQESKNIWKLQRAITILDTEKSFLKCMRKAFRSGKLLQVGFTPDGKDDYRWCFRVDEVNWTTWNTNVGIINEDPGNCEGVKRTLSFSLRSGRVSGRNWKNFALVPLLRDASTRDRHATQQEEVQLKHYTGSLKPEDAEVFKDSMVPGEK
Procedure: as §1, §2
This assay was performed similarly to the human assay described above, but using HEK293 cells transfected with rat TRPV1 (rTRPV1/HEK293).
as §3

IC50 (human TRPV1) | IC50 (rat TRPV1) | SMILES
> 6.67 µM | > 6.67 µM | Cc1ccc(CNc2ncnc3sc(Nc4c(C)cccc4C)nc23)o1 [Example 47, N^2-(2,6-Dimethyl-phenyl)-N^7-(5-methyl-furan-2-ylmethyl)-thiazolo[5,4-d]pyrimidine-2,7-diamine]
0.394 µM | 0.231 µM | Cc1cccc(C)c1Nc1nc2c(Nc3ccc(C#N)c(Cl)c3)ncnc2s1 [Example 142, 2-Chloro-4-[2-(2,6-dimethyl-phenylamino)-thiazolo[5,4-d]pyrimidin-7-ylamino]-benzonitrile]
0.098 µM | 0.04 µM | CSc1ccc(Nc2ncnc3sc(Nc4c(Cl)cccc4Cl)nc23)cc1Cl [Example 124, N^7-(3-Chloro-4-methylsulfanyl-phenyl)-N^2-(2,6-dichloro-phenyl)-thiazolo[5,4-d]pyrimidine-2,7-diamine]
0.172 µM | 0.073 µM | Cc1cccc(C)c1Nc1nc2c(Nc3ccc(Cl)cc3)ncnc2s1 [Example 132, N^7-(4-Chloro-phenyl)-N^2-(2,6-dimethyl-phenyl)-thiazolo[5,4-d]pyrimidine-2,7-diamine]
0.005 µM | 0.001 µM | CS(=O)(=O)c1ccc(Nc2ncnc3sc(Nc4c(Cl)cccc4Cl)nc23)cc1F [Example 82, N^2-(2,6-Dichloro-phenyl)-N^7-(3-fluoro-4-methanesulfonyl-phenyl)-thiazolo[5,4-d]pyrimidine-2,7-diamine]
0.092 µM | 0.039 µM | FC(F)(F)c1ccc(Nc2ncnc3sc(Nc4ccccc4Cl)nc23)cc1 [Example 16, N^2-(2-Chloro-phenyl)-N^7-(4-trifluoromethyl-phenyl)-thiazolo[5,4-d]pyrimidine-2,7-diamine]
0.205 µM | 0.07 µM | COc1ccc(Nc2ncnc3sc(Nc4c(C)cccc4C)nc23)cc1 [Example 33, N^2-(2,6-Dimethyl-phenyl)-N^7-(4-methoxy-phenyl)-thiazolo[5,4-d]pyrimidine-2,7-diamine]
> 20 µM | 5.32 µM | Cc1nc(Nc2cccnc2)c2nc(Nc3c(C)cccc3C)sc2n1 [Example 171, N^2-(2,6-Dimethyl-phenyl)-5-methyl-N^7-pyridin-3-yl-thiazolo[5,4-d]pyrimidine-2,7-diamine]
1.22 µM | 0.349 µM | Cc1cccc(C)c1Nc1nc2c(Nc3ccc(S(=O)(=O)N4CCNCC4)cc3)ncnc2s1 [Example 151, N^2-(2,6-Dimethyl-phenyl)-N^7-[4-(Piperazine-1-sulfonyl)-phenyl]-thiazolo[5,4-d]pyrimidine-2,7-diamine]

The remaining lines, values behind:

SMILES | IC50 (human TRPV1) | IC50 (rat TRPV1)
Cc1nc(Nc2ccc(S(=O)(=O)N3CCCC3)cc2)c2nc(Nc3c(Cl)cccc3Cl)sc2n1 [Example 73, N^2-(2,6-Dichloro-phenyl)-5-methyl-N^7-[4-(pyrrolidine-1-sulfonyl)-phenyl]-thiazolo[5,4-d]pyrimidine-2,7-diamine] | 0.001 µM | 0.001 µM
CS(=O)(=O)c1ccc(Nc2ncnc3sc(Nc4c(Cl)cc(C(N)=O)cc4Cl)nc23)cc1 [Example 237, 3,5-Dichloro-4-[7-(4-methanesulfonyl-phenylamino)-thiazolo[5,4-d]pyrimidin-2-ylamino]-benzamide] | 0.84 µM | 0.189 µM
CN(C)c1nc(Nc2ccc(C(F)(F)F)cc2)c2nc(Nc3c(Cl)cccc3Cl)sc2n1 [Example 56, N^2-(2,6-Dichloro-phenyl)-N^5,N^5-dimethyl-N^7-(4-trifluoromethyl-phenyl)-thiazolo[5,4-d]pyrimidine-2,5,7-triamine] | 0.032 µM | 0.044 µM
Cc1noc(C)c1Nc1nc2c(Nc3ccc(C(C)(C)C#N)cc3)ncnc2s1 [Example 223, 2-[4-({2-[(3,5-Dimethylisoxazol-4-yl)amino][1,3]thiazolo[5,4-d]pyrimidin-7-yl}amino)phenyl]-2-methylpropanenitrile] | 0.169 µM | 0.095 µM
Cc1nc(Nc2ccc(C(F)(F)F)cc2)c2nc(Nc3ccccc3S(C)(=O)=O)sc2n1 [Example 197, N^2-(2-Methanesulfonyl-phenyl)-5-methyl-N^7-(4-trifluoromethylphenyl)-thiazolo[5,4-d]pyrimidine-2,7-diamine] | 0.312 µM | 0.287 µM
Cc1nc(Nc2ccc(C(F)(F)F)cc2)c2nc(Nc3c(Cl)cccc3Cl)sc2n1 [Example 5, N^2-(2,6-Dichloro-phenyl)-5-methyl-N^7-(4-trifluoromethyl-phenyl)-thiazolo[5,4-d]pyrimidine-2,7-diamine] | 0.003 µM | 0.002 µM
Cc1nc(Nc2ccc(C#N)cc2)c2nc(Nc3c(Cl)cccc3Cl)sc2n1 [Example 96, 4-[2-(2,6-Dichloro-phenylamino)-5-methyl-thiazolo[5,4-d]pyrimidin-7-ylamino]-benzonitrile] | 0.012 µM | 0.009 µM
Cc1noc(C)c1Nc1nc2c(Nc3ccc(C(F)(F)F)c(Cl)c3)ncnc2s1 [Example 50, N^7-(3-Chloro-4-trifluoromethyl-phenyl)-N^2-(3,5-dimethyl-isoxazol-4-yl)thiazolo[5,4d]pyrimidine-2,7-diamine] | > 6.67 µM | > 6.67 µM
CC1CCCN1c1nc(Nc2ccc(S(C)(=O)=O)cc2)c2nc(Nc3c(Cl)cccc3Cl)sc2n1 (racemic) [Example 117, (racemic)-N^2-(2,6-Dichloro-phenyl)-N^7-(4-methanesulfonyl-phenyl)-5-(2-methyl-pyrrolidin-1-yl)-thiazolo[5,4-d]pyrimidine-2,7-diamine] | 0.05 µM | 0.007 µM
NCc1cc(Cl)c(Nc2nc3c(Nc4ccc(C(F)(F)F)cc4)ncnc3s2)c(Cl)c1 [Example 240, N^2-(4-Aminomethyl-2,6-dichloro-phenyl)-N^7-(4-trifluoromethyl-phenyl)-thiazolo[5,4-d]pyrimidine-2,7-diamine] | 0.154 µM | 0.061 µM
COC(=O)c1scc(C)c1Nc1nc2c(Nc3ccc(C(F)(F)F)cc3)ncnc2s1 [Example 48, 4-Methyl-3-[7-(4-trifluoromethyl-phenylamino)-thiazolo[5,4-d]pyrimidin-2-ylamino]-thiophene-2-carboxylic acid methyl ester] | 0.207 µM | 0.202 µM
Cc1nc(Nc2ccc(S(=O)(=O)C(C)C)cc2)c2nc(Nc3c(Cl)cccc3Cl)sc2n1 [Example 93, N^2-(2,6-Dichloro-phenyl)-5-methyl-N^7-[4-(propane-2-sulfonyl)-phenyl]-thiazolo[5,4-d]pyrimidine-2,7-diamine] | 0.008 µM | 0.01 µM
COC(=O)C(C)(C)c1ccc(Nc2ncnc3sc(Nc4c(C)noc4C)nc23)cc1 [Example 222, Methyl 2-[4-({2-[(3,5-dimethylisoxazol-4-yl)amino][1,3]thiazolo[5,4-d]pyrimidin-7-yl}amino)phenyl]-2-methylpropanoate] | 0.1 µM | 0.072 µM
FC(F)(F)c1ccc(Nc2nc(N3CCNCC3)nc3sc(Nc4c(Cl)cccc4Cl)nc23)cc1Cl [Example 162, N^7-(3-Chloro-4-trifluoromethyl-phenyl)-N^2-(2,6-dichloro-phenyl)-5-piperazin-1-yl-thiazolo[5,4-d]pyrimidine-2,7-diamine] | 4.28 µM | 3.08 µM
